# Earlier results, collected in patent publication US20220117866A1, “ANHYDROUS ALCOHOL-FREE SILKY FRAGRANCE FORMULATION” (AKI, Inc., priority 2020, published 2022).
# Structures can show the parent of a compound that is named as a salt.
# Test system: laboratory animals
# Conditions: oral, dermal and inhalation routes
smiles,measurement,value
"CCOC(=O)CC(O)(CC(=O)OCC)C(=O)OCC [Triethyl Citrate, Triethyl 2-hydroxypropane-1,2,3-tricarboxylate]",acute toxicity,low
